# System: CNCM I-2545
# Assay: oligonucleotide array analysis of IFN-α modulated gene expression
# Type: cell-based, human
# Protocol: All these cell lines were cultured in RPMI medium supplemented with 10% FCS, glutamine (2 mM), sodium pyruvate (1 mM), non-essential amino acids and HEPES buffer (10 mM) (all from GIBCO Life Sciences, Paisley, UK). When confluent, the cells were passaged by trypsinization.
# Cultured melanoma cells were harvested by scraping and total cellular RNA was extracted. 10 μg from each sample were used directly as templates for cDNA synthesis using a commercial kit (Roche Molecular Biochemicals, Rotkreuz, Switzerland). The T7 promoter sequence incorporated into the cDNA synthesis primer allowed template amplification and biotin labeling by in vitro transcription using a commercial kit (Affymetrix, Santa Clara, Calif.). After alkaline heat fragmentation […] was hybridised to the array (Affymetrix, Santa Clara, Calif.) and all subsequent steps were performed following standard procedures as supplied with the arrays. Raw data were collected with a confocal laser scanner (Hewlett Packard, Palo Alto, Calif.) using GeneChip software v3.1 (Affymetrix, Santa Clara, Calif.).
# Raw data were normalized based on the total chip signal obtained upon hybridisation of ME15 cell line cDNA. This array was selected because: i) the 5′/3′ intensity ratio of control genes was smaller than 3; ii)>25% of the genes are called “present” by Genechip; iii) the image appearance is homogeneous with low background and no sign of mechanical chip damage.
# The normalized average difference (nAD) between the signals of the perfect and of the mismatch probesets for each gene was used as the expression level of a given gene. At least one nAD value in a pairwise comparison of data has to exceed 50 to be included. Based on nAD, change factors related to IFN-α exposure were also calculated. Negative nAD values were set to 20 in order to avoid the calculation of artificially high modifications. In order to exclude artefacts, only genes with robust change factors, greater than 2-fold, were included in the analysis. […] Genes were clustered according to their mode of regulation.
# Total cellular RNA was extracted from the sensitive and resistant melanoma cell lines identified above, reverse transcribed and processed for hybridization to an oligonucleotide array (Hu6800FL, PN 900183) containing probe sets derived from 7000 full-length human genes. Expression levels for each gene were calculated as normalized average difference (nAD, see materials and methods).
# Patterns of genes expressed in IFN-α sensitive and resistant melanoma cell lines were investigated upon 48 hour culture in the presence of IFN-α. CNCM I-2546 and CNCM I-2545 were studied in detail.
# In Table 2 below, CNCM I-2546 and CNCM I-2545 cultured for 48 hours in the absence or in the presence of 100 U/ml IFN-α were used to assay cytokine modulated gene expression as matched with data obtained in fibrosarcoma cells. This analysis yielded six clusters of genes. […] Data are presented as average difference of signal intensity between match and mismatch probesets.
# In Table 3 below, CNCM I-2546 and CNCM I-2545 cell lines cultured for 48 hours in the absence or in the presence of 100 U/ml IFN-α were used to identify novel cytokine induced genes whose expression was not found to be modulated in fibrosarcoma cells. Cluster 1 includes genes inducible in the CNCM I-2546 sensitive but not in the CNCM I-2545 resistant cell line. Cluster 2 comprises genes inducible in both lines. Data are presented as average difference of signal intensity between match and mismatch probesets.
# [1] = CNCM I-2545, IFN-α 100 U/ml 48 hours
substance,measurement,setting,value
IFN-α,change factor (CF) D28137 bst-2,[1],1.38
same,change factor (CF) D32050 alanyl-trna synthetase,[1],−0.92
same,change factor (CF) D49824 hla-b null allele,[1],−0.97
same,change factor (CF) D50914 EST,[1],−2
same,"change factor (CF) D78132 rheb gene, ras-related gtp binding protein gene",[1],1.88
same,"change factor (CF) HG658 major histocompatibility complex, class 1 c",[1],−1.6
same,change factor (CF) HG1612 macmarcks,[1],−0.16
same,"change factor (CF) HG2917 major histocompatibility complex, class i, e",[1],−0.1
same,change factor (CF) J00105 beta-2 microglobulin gene,[1],0.26
same,change factor (CF) J00212 leukocyte interferon (ifn-alpha),[1],−4.3
same,change factor (CF) J03909 gamma-interferon-inducible protein (ip-30),[1],2.38
same,change factor (CF) J04164 interferon-inducible protein 27-sep,[1],0
same,change factor (CF) J04182 lysosomal membrane glycoprotein-1 (lamp1),[1],6.33
same,change factor (CF) J04444 cytochrome c-1 gene,[1],1.56
same,change factor (CF) K01900 lymphocyte interferon alpha type 201,[1],−6.8
same,change factor (CF) K03515 neuroleukin,[1],−0.17
same,change factor (CF) L07633 interferon-gamma,[1],11.5
same,change factor (CF) L13210 mac-2 binding protein,[1],−0.22
same,"change factor (CF) L35249 vacuolar h + -atpase mr 56,000 subunit (ho57)",[1],16.85
same,change factor (CF) L37043 casein kinase i epsilon,[1],0.01
same,change factor (CF) L40387 thyroid receptor interactor (trip14),[1],−4.2
same,change factor (CF) L42243 ifnar2 gene (interferon receptor),[1],−2.1
same,change factor (CF) M13755 interferon-induced 17-kda/15-kda protein,[1],0.55
same,"change factor (CF) M19650 2′,3′-cyclic nucleotide 3prime-phosphodiesterase",[1],−0.38
same,change factor (CF) M30818 interferon-induced cellular resistance mediator protein,[1],0
same,change factor (CF) M31013 nonmuscle myosin heavy chain (nmhc),[1],−0.43
same,change factor (CF) M34338 spermidine synthase,[1],−0.7
same,change factor (CF) M60784 ul snrnp-specific protein,[1],2.59
same,change factor (CF) M65028 heterogeneous nuclear ribonucleoprotein a/b,[1],1.29
same,change factor (CF) M79462 pml-1,[1],−9.05
same,change factor (CF) M92642 alpha-1 type xvi collagen (col16a1),[1],4.75
same,change factor (CF) M94880 mhc class i (hla-a*8001),[1],−0.31
same,change factor (CF) M97935 transcription factor isgf-3,[1],−2.6
same,change factor (CF) M98343 amplaxin (ems1),[1],2.15
same,change factor (CF) S81914 iex-1 = radiation-inducible immediate-early gene,[1],0.05
same,change factor (CF) U01824 glutamate/aspartate transporter,[1],−8.69
same,change factor (CF) U09579 melanoma differentiation associated (mda-6),[1],0
same,change factor (CF) U18009 chromosome 17q21 clone lf113,[1],−0.59
same,change factor (CF) U18018 ela enhancer binding protein (ela-f),[1],0.15
same,"change factor (CF) U22970 16-jun gene, interferon-inducible peptide (6-16)",[1],0.2
same,change factor (CF) U41515 dss1,[1],5.15
same,change factor (CF) U47025 fetal brain glycogen phosphorylase b,[1],−0.45
same,change factor (CF) U50327 protein kinase c substrate 80k-h gene (prkcsh),[1],−0.7
same,change factor (CF) U50648 interferon-inducible rna-dependent protein kinase (pkr),[1],−1.3
same,change factor (CF) U51127 interferon regulatory factor 5,[1],−1.88
same,change factor (CF) U52513 rig-g,[1],−13.45
same,change factor (CF) U53830 interferon regulatory factor 7a,[1],−4.15
same,change factor (CF) U61263 acetolactate synthase homolog,[1],−0.36
same,change factor (CF) U65579 mitochondrial nadh dehydrogenase-ubiquinone,[1],−0.01
same,change factor (CF) U65932 extracellular matrix protein 1 (ecm1),[1],−1.34
same,change factor (CF) U69126 fuse binding protein 2 (fbp2),[1],0.39
same,change factor (CF) U70063 human acid ceramidase,[1],2.48
same,change factor (CF) U72206 guanine nucleotide regulatory factor (lfp40),[1],−0.47
same,change factor (CF) U72882 interferon-induced leucine zipper protein (ifp35),[1],−3.63
same,change factor (CF) U78525 human eukaryotic translation initiation factor (eif3),[1],1.25
same,change factor (CF) U91316 acyl-coa thioester hydrolase,[1],0.69
same,change factor (CF) X04412 plasma gelsolin,[1],0
same,change factor (CF) X07730 prostate specific antigen,[1],−1.75
same,change factor (CF) X15949 interferon regulatory factor-2 (irf-2),[1],0
same,change factor (CF) X57351 1-8d gene from interferon-inducible gene family,[1],0.09
same,change factor (CF) X57522 ring4 cdna,[1],−1.92
same,change factor (CF) X67325 p27,[1],0
same,"change factor (CF) X70848 protein phosphatase 1, catalytic subunit",[1],8.42
same,change factor (CF) X76538 mpv17,[1],−0.31
same,change factor (CF) X90846 mixed lineage kinase 2,[1],−4.95
same,change factor (CF) X95325 dna binding protein a variant,[1],−1.51
same,change factor (CF) X96401 rox protein,[1],−1.76
same,change factor (CF) Y00264 amyloid a4 precursor,[1],0.09
same,change factor (CF) Z26491 gene catechol o-methyltransferase,[1],−0.31
same,change factor (CF) Z47055 farnesyl pyrophosphate synthetase like,[1],1.02
same,change factor (CF) Z56281 interferon regulatory factor 3,[1],−2
same,nAD D28137 bst-2,"Table 3, CNCM I-2545 (+) IFN-α 100 U/ml 48 hours, (−) 37",88
same,change factor (CF) D28137 bst-2,"Table 3, CNCM I-2545, IFN-α 100 U/ml 48 hours",1.38

# From patent US20030096237A1, “Determination of the ability of patients to respond to a tumor treatment” (priority 2000, published 2003)
